Assay results published in PubChem BioAssay AID256 (DTP/NCI, 2004).
Several values for one entry are separate records, joined by “and”; a condition that tells them apart may be missing. Equal values may be shown once. Toxic doses and inconclusive results are not listed.

System: CD2F1 mice, L1210 leukemia ip, survival T/C
Assay: NCI In Vivo Anticancer Drug Screen. Data for tumor model L1210 Leukemia (intraperitoneal) in CD2F1 (CDF1) mice
Details: higher = longer survival
Outline: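 Read-out first: treated-group measurement over vehicle-control measurement, expressed as a ratio. Animals bore a transplanted tumor line and were dosed with compound or vehicle.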

[1] = endpoint: mean survival time, dose: 100.0 mg/kg/injection, schedule: Q01DX009 (ip), vehicle: saline
[2] = endpoint: mean survival time, dose: 200.0 mg/kg/injection, schedule: Q01DX009 (ip), vehicle: saline
[3] = endpoint: mean survival time, dose: 12.5 mg/kg/injection, schedule: Q01DX009 (ip), vehicle: saline with Tween-80
[4] = endpoint: mean survival time, dose: 25.0 mg/kg/injection, schedule: Q01DX009 (ip), vehicle: saline with Tween-80
[5] = endpoint: mean survival time, dose: 50.0 mg/kg/injection, schedule: Q01DX009 (ip), vehicle: saline with Tween-80
[6] = endpoint: mean survival time, dose: 100.0 mg/kg/injection, schedule: Q01DX009 (ip), vehicle: saline with Tween-80
[7] = endpoint: mean survival time, dose: 200.0 mg/kg/injection, schedule: Q01DX009 (ip), vehicle: saline with Tween-80
[8] = endpoint: mean survival time, dose: 400.0 mg/kg/injection, schedule: Q01DX009 (ip), vehicle: saline with Tween-80
[9] = endpoint: mean survival time, dose: 25.0 mg/kg/injection, schedule: Q01DX009 (ip), vehicle: saline
[10] = endpoint: mean survival time, dose: 50.0 mg/kg/injection, schedule: Q01DX009 (ip), vehicle: saline
[11] = endpoint: mean survival time, dose: 100.0 mg/kg/injection, schedule: Q04DX003 (ip), vehicle: saline with Tween-80
[12] = endpoint: mean survival time, dose: 200.0 mg/kg/injection, schedule: Q04DX003 (ip), vehicle: saline with Tween-80
[13] = endpoint: mean survival time, dose: 400.0 mg/kg/injection, schedule: Q04DX003 (ip), vehicle: saline with Tween-80
[14] = endpoint: mean survival time, dose: 12.5 mg/kg/injection, schedule: Q04DX003 (ip), vehicle: saline
[15] = endpoint: mean survival time, dose: 25.0 mg/kg/injection, schedule: Q04DX003 (ip), vehicle: saline
[16] = endpoint: mean survival time, dose: 100.0 mg/kg/injection, schedule: Q01DX001 (ip), vehicle: saline with Tween-80

With `CCNCC` the T/C [1] was 100 % of control, the T/C [2] was 94 % of control and the T/C (endpoint: mean survival time, dose: 400.0 mg/kg/injection, schedule: Q01DX009 (ip), vehicle: saline) was 105 % of control.
For `CCN(CC)c1ccc(N=Nc2cc(Cl)ccc2Cl)c(NC(=O)CSC(C)=O)c1`, the T/C (endpoint: mean survival time, dose: 100.0 mg/kg/injection, schedule: Q04DX003 (ip), vehicle: other) was 94 % of control, the T/C (endpoint: mean survival time, dose: 200.0 mg/kg/injection, schedule: Q04DX003 (ip), vehicle: other) was 100 % of control and the T/C (endpoint: mean survival time, dose: 400.0 mg/kg/injection, schedule: Q04DX003 (ip), vehicle: other) was 97 % of control.
In the case of `CCN(CC)CCNc1ccc(C)c2sc3ccc(O)cc3c(=O)c12`, the T/C (endpoint: median survival time, dose: 12.0 mg/kg/injection, schedule: Q01DX009 (ip), vehicle: saline with Tween-80) is reported as 106 % of control, the T/C (endpoint: median survival time, dose: 12.5 mg/kg/injection, schedule: Q01DX009 (ip), vehicle: saline with Tween-80) is reported as 110 % of control and the T/C (endpoint: median survival time, dose: 25.0 mg/kg/injection, schedule: Q01DX009 (ip), vehicle: saline with Tween-80) is reported as 121 % of control. The T/C (endpoint: median survival time, dose: 50.0 mg/kg/injection, schedule: Q01DX009 (ip), vehicle: saline with Tween-80) was 159 % of control and the T/C (endpoint: median survival time, dose: 200.0 mg/kg/injection, schedule: Q01DX009 (ip), vehicle: saline with Tween-80) was 103 % of control.
`CCC(CC)COC(=O)c1ccccc1C(=O)OCC(CC)CC` was tested, and the T/C [3] was 108 % of control, the T/C [4] was 101 % of control and the T/C [5] was 104 % of control. The T/C [6] was 102 % of control, the T/C [7] was 98 % of control and the T/C [8] was 100 % of control.
In the case of `CCN(CC)CCOC(=O)c1ccccc1Nc1cccc(C)c1`, the T/C [9] is reported as 89 % of control, the T/C [10] is reported as 101 % of control and the T/C [1] is reported as 97 % of control.
For `CCCCS(=O)(=O)C(c1ccccc1)c1ccccc1`, the T/C (endpoint: mean survival time, dose: 100.0 mg/kg/injection, schedule: Q01DX001 (ip), vehicle: Klucel (hydroxypropylcellulose) (HPC)) was 90 % of control, the T/C (endpoint: mean survival time, dose: 200.0 mg/kg/injection, schedule: Q01DX001 (ip), vehicle: Klucel (hydroxypropylcellulose) (HPC)) was 96 % of control and the T/C (endpoint: mean survival time, dose: 400.0 mg/kg/injection, schedule: Q01DX001 (ip), vehicle: Klucel (hydroxypropylcellulose) (HPC)) was 90 % of control.
In the case of `O=C(O)CCC(=O)Nc1ccccc1C(=O)O`, the T/C [6] is reported as 102 % of control, the T/C [7] is reported as 93 % of control and the T/C [8] is reported as 96 % of control.
In the case of `CC(=O)OCC1OC(OC2C(COC(C)=O)OC(Sc3ccc(C)cc3)C(OC(C)=O)C2OC(C)=O)C(OC(C)=O)C(OC(C)=O)C1OC(C)=O` (stereo unspecified), the T/C [11] is reported as 97 % of control, the T/C [12] is reported as 91 % of control and the T/C [13] is reported as 94 % of control.
`CCCOP(=O)(N1CC1(C)C)N1CC1(C)C` (stereo unspecified) was tested, and the T/C (endpoint: mean survival time, dose: 6.3 mg/kg/injection, schedule: Q04DX003 (ip), vehicle: saline) was 101 % of control, the T/C [14] was 101 % of control and the T/C [9] was 119 % of control. The T/C [15] was 124 % of control, the T/C [10] was 188 % of control and the T/C [1] was 156 % of control and 186 % of control. For the same compound, the T/C (endpoint: mean survival time, dose: 100.0 mg/kg/injection, schedule: Q04DX003 (ip), vehicle: saline) was 124 % of control.
`CC(C)(CC/C(=N\Nc1ccc([N+](=O)[O-])cc1[N+](=O)[O-])c1ccccc1)C1OCCO1` was tested, and the T/C (endpoint: mean survival time, dose: 50.0 mg/kg/injection, schedule: Q04DX002 (ip), vehicle: saline with Tween-80) was 90 % of control, the T/C (endpoint: mean survival time, dose: 100.0 mg/kg/injection, schedule: Q04DX002 (ip), vehicle: saline with Tween-80) was 98 % of control and the T/C (endpoint: mean survival time, dose: 200.0 mg/kg/injection, schedule: Q04DX002 (ip), vehicle: saline with Tween-80) was 94 % of control.
With `CCC1(c2ccccc2)C(=O)N(CBr)C(=O)N(CBr)C1=O` the T/C [3] was 98 % of control, the T/C [4] was 93 % of control and the T/C [5] was 96 % of control.
`CC1=NNC(=O)C1NNc1ccccc1` (stereo unspecified) was tested, and the T/C [11] was 96 % of control, the T/C [12] was 96 % of control and the T/C [13] was 96 % of control.
In the case of `NC(=S)N/N=C/c1ccccc1N`, the T/C (endpoint: mean survival time, dose: 100.0 mg/kg/injection, schedule: Q04DX003 (ip), vehicle: acetone) is reported as 103 % of control, the T/C (endpoint: mean survival time, dose: 200.0 mg/kg/injection, schedule: Q04DX003 (ip), vehicle: acetone) is reported as 97 % of control and the T/C (endpoint: mean survival time, dose: 400.0 mg/kg/injection, schedule: Q04DX003 (ip), vehicle: acetone) is reported as 104 % of control.
For `CC(=O)Nc1ccc2nc3ccc(NC(C)=O)cc3[n+](-c3ccccc3)c2c1`, the T/C (endpoint: mean survival time, dose: 16.0 mg/kg/injection, schedule: Q01DX008 (iv), vehicle: saline) was 98 % of control, the T/C (endpoint: mean survival time, dose: 25.0 mg/kg/injection, schedule: Q03DX003 (ip), vehicle: saline) was 118 % of control and the T/C [15] was 123 % of control. The T/C (endpoint: mean survival time, dose: 32.0 mg/kg/injection, schedule: Q01DX008 (iv), vehicle: saline) was 100 % of control, the T/C (endpoint: mean survival time, dose: 50.0 mg/kg/injection, schedule: Q01DX007 (ip), vehicle: saline) was 155 % of control and the T/C [10] was 157 % of control. The T/C (endpoint: mean survival time, dose: 64.0 mg/kg/injection, schedule: Q01DX008 (iv), vehicle: saline) was 115 % of control, the T/C (endpoint: mean survival time, dose: 100.0 mg/kg/injection, schedule: Q01DX007 (ip), vehicle: saline) was 183 % of control and the T/C [1] was 155 % of control.
In the case of `C#CC12CCCCN1CCC2` (stereo unspecified), the T/C (endpoint: mean survival time, dose: 100.0 mg/kg/injection, schedule: Q01DX001 (ip), vehicle: saline) is reported as 93 % of control and the T/C (endpoint: mean survival time, dose: 200.0 mg/kg/injection, schedule: Q01DX001 (ip), vehicle: saline) is reported as 97 % of control.
For `Cc1ccc(N=Nc2sc(N)nc2-c2cccc([N+](=O)[O-])c2)cc1`, the T/C [16] was 89 % of control and the T/C (endpoint: mean survival time, dose: 200.0 mg/kg/injection, schedule: Q01DX001 (ip), vehicle: saline with Tween-80) was 96 % of control.
`O=C1C2(c3ccccc3)CCC1(c1ccccc1)C(c1ccccc1)=C2c1ccccc1` was tested, and the T/C (endpoint: mean survival time, dose: 25.0 mg/kg/injection, schedule: Q01DX001 (ip), vehicle: saline with Tween-80) was 94 % of control, the T/C (endpoint: mean survival time, dose: 50.0 mg/kg/injection, schedule: Q01DX001 (ip), vehicle: saline with Tween-80) was 87 % of control and the T/C [16] was 90 % of control.
`NC(CCC(=O)NC(CSC(c1ccccc1)(c1ccccc1)c1ccc(F)cc1)C(=O)NCC(=O)O)C(=O)O` (stereo unspecified) was tested, and the T/C [9] was 120 % of control and the T/C [2] was 150 % of control.
With `CC1(C)CC[N+]1(C)C` the T/C [14] was 96 % of control, the T/C [15] was 102 % of control and the T/C (endpoint: mean survival time, dose: 50.0 mg/kg/injection, schedule: Q04DX003 (ip), vehicle: saline) was 97 % of control.
`Oc1ccc(CC2=NCCc3cc(O)c(O)cc32)cc1O` was tested, and the T/C (endpoint: mean survival time, dose: 5.0 mg/kg/injection, schedule: Q01DX001 (ip), vehicle: saline) was 104 % of control, the T/C (endpoint: mean survival time, dose: 10.0 mg/kg/injection, schedule: Q01DX001 (ip), vehicle: saline) was 98 % of control and the T/C (endpoint: mean survival time, dose: 20.0 mg/kg/injection, schedule: Q01DX001 (ip), vehicle: saline) was 98 % of control. The T/C (endpoint: mean survival time, dose: 40.0 mg/kg/injection, schedule: Q01DX001 (ip), vehicle: saline) was 100 % of control and the T/C (endpoint: mean survival time, dose: 80.0 mg/kg/injection, schedule: Q01DX001 (ip), vehicle: saline) was 102 % of control.
`C=C(CC)C1(C)C(=O)NC(=O)NC1=O` was tested, and the T/C (endpoint: mean survival time, dose: 75.0 mg/kg/injection, schedule: Q01DX001 (ip), vehicle: saline) was 95 % of control, the T/C (endpoint: mean survival time, dose: 150.0 mg/kg/injection, schedule: Q01DX001 (ip), vehicle: saline) was 97 % of control and the T/C (endpoint: mean survival time, dose: 300.0 mg/kg/injection, schedule: Q01DX001 (ip), vehicle: saline) was 101 % of control.
`O=C1[C@@H]2C3C=CC([C@H]4C(=O)N(CO)C(=O)[C@@H]34)[C@@H]2C(=O)N1CO` was tested, and the T/C (endpoint: median survival time, dose: 25.0 mg/kg/injection, schedule: Q01DX005 (ip), vehicle: Klucel (hydroxypropylcellulose) (HPC)) was 107 % of control, the T/C (endpoint: median survival time, dose: 50.0 mg/kg/injection, schedule: Q01DX005 (ip), vehicle: Klucel (hydroxypropylcellulose) (HPC)) was 109 % of control and the T/C (endpoint: median survival time, dose: 200.0 mg/kg/injection, schedule: Q01DX005 (ip), vehicle: Klucel (hydroxypropylcellulose) (HPC)) was 101 % of control.
`Cc1cc(NCCN(C(C)C)C(C)C)nc(/N=C(\N)Nc2ccc(Cl)c(C(F)(F)F)c2)n1` was tested, and the T/C (endpoint: mean survival time, dose: 1.25 mg/kg/injection, schedule: Q01DX009 (ip), vehicle: Klucel (hydroxypropylcellulose) (HPC)) was 98 % of control, the T/C (endpoint: mean survival time, dose: 2.5 mg/kg/injection, schedule: Q01DX009 (ip), vehicle: Klucel (hydroxypropylcellulose) (HPC)) was 103 % of control and the T/C (endpoint: mean survival time, dose: 5.0 mg/kg/injection, schedule: Q01DX009 (ip), vehicle: Klucel (hydroxypropylcellulose) (HPC)) was 105 % of control. The T/C (endpoint: mean survival time, dose: 10.0 mg/kg/injection, schedule: Q01DX009 (ip), vehicle: Klucel (hydroxypropylcellulose) (HPC)) was 101 % of control, the T/C (endpoint: mean survival time, dose: 20.0 mg/kg/injection, schedule: Q01DX009 (ip), vehicle: Klucel (hydroxypropylcellulose) (HPC)) was 100 % of control and the T/C (endpoint: mean survival time, dose: 40.0 mg/kg/injection, schedule: Q01DX009 (ip), vehicle: Klucel (hydroxypropylcellulose) (HPC)) was 88 % of control.
